Literature values as cited in patent US7662571B2, “Mitochondrial markers of ischemia” (Nourheart Inc., priority 2005, dated 2010).
No end group written: not given here.

What was measured:
[1] = biological target: T1, FMLP receptor (68-kDa protein) (Homo sapiens, UniProt P21462)
T1 sequence (P21462 1-350): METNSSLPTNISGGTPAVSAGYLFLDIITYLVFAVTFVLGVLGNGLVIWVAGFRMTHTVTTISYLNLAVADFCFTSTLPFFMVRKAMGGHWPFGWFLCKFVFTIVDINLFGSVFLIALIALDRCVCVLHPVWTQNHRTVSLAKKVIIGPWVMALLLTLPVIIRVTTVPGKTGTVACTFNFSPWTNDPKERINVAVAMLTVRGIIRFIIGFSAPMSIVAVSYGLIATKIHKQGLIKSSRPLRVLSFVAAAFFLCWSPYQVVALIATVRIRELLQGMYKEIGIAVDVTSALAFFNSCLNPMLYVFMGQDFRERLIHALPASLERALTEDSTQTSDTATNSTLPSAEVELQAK

FPR-like 2 (FPRL2) = biological target: T2, FPR-like 2 (FPRL2) (Homo sapiens, UniProt P25089); conditions: FPRL2, low-affinity receptor
T2 sequence (P25089 1-353): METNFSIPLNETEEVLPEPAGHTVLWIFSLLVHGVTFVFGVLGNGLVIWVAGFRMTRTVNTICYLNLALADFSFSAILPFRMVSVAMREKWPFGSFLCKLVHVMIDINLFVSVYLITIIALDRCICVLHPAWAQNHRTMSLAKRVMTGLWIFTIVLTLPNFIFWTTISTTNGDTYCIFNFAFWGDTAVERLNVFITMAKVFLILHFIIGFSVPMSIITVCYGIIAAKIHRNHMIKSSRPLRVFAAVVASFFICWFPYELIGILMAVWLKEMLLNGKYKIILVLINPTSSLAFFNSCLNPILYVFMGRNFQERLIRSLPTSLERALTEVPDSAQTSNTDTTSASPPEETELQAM

LVVYPWT [spinorphin, Leu-Val-Val-Tyr-Pro-Trp-Thr]
chemotaxis of neutrophils caused by the low mwt chemoattractant (neutrophils): inhibited

RKAMGGHWPFGWFLCKFl (FMLP receptor derived peptide) [synthetic 17-aa peptide]
inhibition of ligand binding to the 68-kDa protein [1]: strongest inhibitor of ligand binding

formyl-Met-Leu-Phe [fMLP]
concentration needed for receptor activation (FPR-like 2 (FPRL2)): only activated by high (micromolar) concentrations
